Measurements taken from ChEMBL document CHEMBL1681657, “P3 optimization of functional potency, in vivo efficacy and oral bioavailability in 3-aminopyrazinone thrombin inhibitors bearing non-charged groups at the P1 position” (Bioorg Med Chem Lett, 2011).
pKi: −log10 of the molar value. Active and inactive are the calls of the source. The rule behind the calls is not given here.

Tests used:
[1] = Fraction unbound in human plasma; type: ADME, cell-free
[2] = Anticoagulant activity in human […] assessed as concentration required to double activated partial […] time; type: functional
[3] = Inhibition of trypsin
Prothrombin = Prothrombin (Homo sapiens, UniProt P00734); assay: Inhibition of thrombin
[4] = Cmax in dog at 1 mg/kg, po; type: ADME, organism-based, Canis lupus familiaris; design: dose 1 mg/kg, route oral; settings: in vivo
[5] = Cmax in rat at 10 mg/kg, po; type: ADME, organism-based; design: dose 10 mg/kg, route oral; settings: in vivo
[6] = Half life in rat at 10 mg/kg, po; type: ADME, organism-based; design: dose 10 mg/kg, route oral; settings: in vivo
[7] = Half life in dog at 1 mg/kg, po; type: ADME, organism-based, Canis lupus familiaris; design: dose 1 mg/kg, route oral; settings: in vivo
Rattus norvegicus = assay: Anticoagulant activity in iv dosed ferric chloride-induced thrombosis rat model assessed as protection against thrombotic occlusion; type: functional, organism-based

fraction unbound [1]	pKi [3]	pKi (Prothrombin)	Cmax [4] [µM]	Cmax [5] [µM]	half-life [6] [h]	half-life [7] [h]	SMILES	Activity [2] [µM]	Activity (Rattus norvegicus)
0.12	–	–	–	–	–	–	NC(C(=O)N1CCC[C@H]1C(=O)NCc1cc(Cl)ccc1OCC(=O)NC1CC1)C1CCCCC1 (single isomer, unassigned)	0.42	–
0.06	4.43	8.52	2.82	2.98	1	0.867	Cc1cnc(NCCc2ccccn2)c(=O)n1CC(=O)NCc1cccc(Cl)c1	1.01	–
–	3.86	8.74	–	–	–	–	COc1ccc(C#N)c(CNC(=O)Cn2c(C)cnc(NCCC3CCCCN3)c2=O)c1 (racemic)	0.27	Active
–	4.77	9.51	–	–	–	–	O=C(Cn1c(Cl)cnc(NCCc2cccc[n+]2[O-])c1=O)NCc1cc(Cl)ccc1OCC(F)(F)F	0.6	–
–	4.19	8.74	–	–	–	–	COc1ccc(Cl)cc1CNC(=O)Cn1c(Cl)cnc(NCCc2cccc[n+]2[O-])c1=O	0.67	–
–	4.03	8.96	–	–	–	–	Cc1ccc(Cl)cc1CNC(=O)Cn1c(Cl)cnc(NCCc2cccc[n+]2[O-])c1=O	0.69	–
–	3.56	8.96	–	–	–	–	COc1ccc(C#N)c(CNC(=O)Cn2c(Cl)cnc(NCCc3cccc[n+]3[O-])c2=O)c1	0.41	–
–	< 3.00	8.80	2.26	2.28	2.08	1.47	COc1ccc(C#N)c(CNC(=O)Cn2c(C)cnc(NCCc3ccccn3)c2=O)c1	0.72	–
–	3.99	8.89	2.3	–	–	0.85	Cc1ccc(C#N)c(CNC(=O)Cn2c(C)cnc(NCCc3ccccn3)c2=O)c1	0.56	–
–	4.42	8.64	–	–	–	–	Cc1ccc(Cl)cc1CNC(=O)Cn1c(C)cnc(NCCC2CCCCN2)c1=O (racemic)	0.44	Active
–	4.23	8.32	–	–	–	–	COc1ccc(Cl)cc1CNC(=O)Cn1c(C)cnc(NCCC2CCCCN2)c1=O (racemic)	0.65	Active
–	< 4.30	8.96	2.52	1.29	3.67	1.18	Cc1ccc(Cl)cc1CNC(=O)Cn1c(C)cnc(NCCc2ccccn2)c1=O	0.87	–

Second part, the compound before the results:

SMILES	fraction unbound [1]	pKi [3]	pKi (Prothrombin)	Cmax [4] [µM]	Cmax [5] [µM]	half-life [6] [h]	half-life [7] [h]	Activity [2] [µM]	Activity (Rattus norvegicus)
O=C(Cn1c(Cl)cnc(NCCc2cccc[n+]2[O-])c1=O)NCc1cc(Cl)ccc1Cl	–	3.86	9.12	–	–	–	–	0.65	–
COc1ccc(C)cc1CNC(=O)Cn1c(C)cnc(NCCc2ccccn2)c1=O	–	3.04	8.10	–	–	–	–	2.9	–
Cc1cnc(NCCc2ccccn2)c(=O)n1CC(=O)NCc1cc(Cl)ccc1OCC(=O)NC1CCCNC1 (centres undefined)	0.12	–	9.90	–	–	–	–	0.24	Active
Cc1ccc(OCC(F)(F)F)c(CNC(=O)Cn2c(C)cnc(NCCc3ccccn3)c2=O)c1	–	4.04	8.82	–	–	–	–	0.89	–
Cc1cnc(NCCc2ccccn2)c(=O)n1CC(=O)NCc1cc(Cl)ccc1OCC(=O)NC1CC1	0.01	–	10.82	–	–	–	–	0.45	–
COc1ccc(C#N)c(CNC(=O)Cn2c(Cl)cnc(NCCc3ccccn3)c2=O)c1	–	< 4.00	8.82	–	–	–	–	0.83	–
COc1ccc(Cl)cc1CNC(=O)Cn1c(C)cnc(NCCc2ccccn2)c1=O	–	3.79	8.70	1.48	0.57	3.73	1	1.05	–
Cc1cnc(NCCc2ccccn2)c(=O)n1CC(=O)NCc1cc(Cl)ccc1OCC(F)(F)F	–	4.49	9.30	3.24	1.06	1.95	1.3	0.79	–
Cc1cnc(NCCc2ccccn2)c(=O)n1CC(=O)NCc1cc(Cl)ccc1Cl	–	4.28	9.12	–	–	–	–	0.98	–
